Assay results reported in patent publication US9949968B2, “Diarylalkylamine REV-ERB antagonists and their use as medicaments” (FONDAZIONE ISTITUTO ITALIANO DI TECNOLOGIA, priority 2013, dated 2018).
Where a name gives a salt, the structure may show the parent alone.

Key:
[1] = tested on: REV-ERB; test: Luciferase-based assay of REV-ERB mediated transcriptional regulation (RevRE/SV40-CLuc reporter in HEK-293 cells); assay type: cell-based; conditions: HEK-293 cells transfected with RevRE reporter and REV-ERBα and/or β; read 24 h post-transfection; read-out: REV-ERB antagonism EC50
Source text: Luciferase-Base Assay to Assess the Activity of the Compounds on REV-ERB Mediated Transcriptional Regulation
In order to assess the effect of the compounds of the invention on REV-ERB activity the inventors exploited the ability of REV-ERB to repress gene transcription of a specific DNA cis-element. In fact, the DNA binding domain (DBD) of REV-ERB recognizes specific DNA sequences (called RevREs=Rev-erb Responsive Elements) which contains an AGGTCA motif linked in 5′ to an A/T rich sequence harboring the following consensus: A/T A A/T N T (Harding et al., Mol Cell Biol., 1993; 13:3113).
Therefore, two repetitions of the RevRE consensus AGAATGTAGGTCA (SEQ ID NO: 13) upstream a SV40 promoter driving the expression of a reporter gene were cloned. As reported, the luciferase enzyme from the ostracod Cypridina noctiluca was adopted. […] Cypridina luciferase (CLuc) is secreted from cells by virtue of its natural signal peptide and its luminescence can be measured from the supernatant of transfected cells. Therefore, cell lysis is not necessary. Secreted CLuc is a very stable protein. Because of this property, the activity measured from the supernatant reflects the amount of protein accumulated up to the time of sampling. Multiple samples can therefore be obtained from the same transfected cells, allowing an easy set-up of time-course experiments. In addition, the direct use of the supernatant makes the system easily prone to automation for High Throughput Screening.
In order to normalize the experiment for the transfection efficiency, it was used a plasmid containing a SV40 promoter driving the expression of a secreted form of human alkaline phosphatase (SEAP), which enzymatic activity in the supernatant can be measured with chemiluminescence substrates.
To be able to rule out false-positive, for example due to the interference of the compounds to be tested with the fluorescence and/or chemiluminescence reactions, it was used as control a mutated version of the RevRE (GAGCCCGTAGGTCA) (SEQ ID NO: 14) that is no longer able to bind REV-ERB DBD (Harding et al., Mol Cell Biol., 1993; 13:3113).
The person skilled in the art will appreciate that an agonist will improve the ability of REV-ERB to repress the transcription, reducing the luminescence signal, while an antagonist will produce the opposite effect.
For the assay, HEK-293 cells were transfected with the reporter vectors and a plasmid expressing the REV-ERBα and/or β protein. After 6 h from transfection, the medium was replaced with fresh medium containing different doses of the compounds or vehicle (DMSO). After 24 h post-transfection, the supernatant was analyzed for the secreted luciferase and AP activity according to the manufacture instruction. Data normalized as fold activation versus vehicle (DMSO) were fitted using a four-parameter dose-response curve to calculate the EC50 of the different compounds.
(§1) The different compounds were tested for their ability to inhibit the growth of the tumorigenic breast cancer cells BT-474 and for their antagonistic activity toward REV-ERB transcriptional repression, as described in the biological method section.
For the cell growth inhibition (GI) the growth inhibition 50 (GI50) and the growth inhibition max (GImax) are reported. […] The bottom plateaus of the curve was used to calculate the Growth Inhibition max (GImax), defined as the percentage of the reduction of cells after 48 h upon a saturating dose of the administered compound. Compounds with a GI50<100 μM were also tested for their antagonistic activity toward REV-ERB. […]

[2] = tested on: tumorigenic breast cancer cells BT-474; test: Growth inhibition assay (CyQUANT Cell Proliferation Assay) in BT-474 cells; assay type: cell-based; conditions: Homo sapiens; for GI50: 48 h, CyQUANT, read-out: Cell Growth Inibition GI50; for Emax: reduction of cells after 48 h at saturating dose, read-out: Cell Growth Inibition GImax
Source text: Given that REV-ERB target genes include several metabolic regulators, such as Pgc-1α and Nampt, it was decided to test the cell proliferation with a method that is independent from the metabolic state of the cell.
The CyQUANT® Cell Proliferation Assay Kit (Invitrogen) was used, an assay that has a linear detection range extending from 50 or fewer to at least 250,000 cells.
Frozen cells are simply thawed and lysed by addition of a buffer containing the CyQUANT®.
For the assay, tumorigenic breast cancer cells BT-474 cells were seeded at 2500 cells per well in a 96-well plate and incubated over-night at 37° C. Then, fresh medium containing different concentration of the compounds or vehicle (DMSO) was added and cells were growth 48 h at 37° C. Finally, cells were frozen at […] and then processed according to the manufacture instructions. A minimum of triplicate data for each dose was used for the analysis.
Data were collected and analyzed with Prism 5 software to calculate the growth inhibition curve.
In particular, values obtained from the DMSO treated cells was set at 100% of growth. Data from treatment of cells with serial dilutions of the compounds were normalized versus the DMSO group and fitted using a four-parameter dose-response curve.
GI50 was calculated as the concentration of compound that gives a response half way between bottom and top plateaus of the fitted curve.
The bottom plateaus of the fitted curve was used to calculate the Growth Inhibition max (GImax), defined as the percentage of the reduction of cells after 48 h upon a saturating dose of compound.
as §1
For the cell growth inhibition (GI) the growth inhibition 50 (GI50) and the growth inhibition max (GImax) are reported. […] The bottom plateaus of the curve was used to calculate the Growth Inhibition max (GImax), defined as the percentage of the reduction of cells after 48 h upon a saturating dose of the administered compound. Compounds with a GI50<100 μM were also tested for their antagonistic activity toward REV-ERB. For these compounds, the EC50 value is provided, calculated as the concentration of compound that gives a response half between the bottom (expression of the reporter in absence of compound) and the top (expression of the reporter at saturating doses of compound) plateaus of the fitted curves (see biological method section for a description of the reported assay). n.d.=not determined; n.t.=not tested.

| SMILES | EC50 [1] [µM] | GI50 [2] [µM] | Emax [2] [%] |
| --- | --- | --- | --- |
| Oc1ccc(CNC2(c3ccccc3F)CCCC2)cc1CN1CCN(c2ccccc2)CC1 [Example 9, 4-[[[1-(2-Fluorophenyl)cyclopentyl]amino]methyl]-2-[(4-phenylpiperazin-1-yl)methyl]phenol trihydrochloride] | 50 | 30 | 50 |
| CN1CCC(Cc2cccc(CNC3(c4ccccc4F)CCOCC3)c2)CC1 [Example 30, 4-(2-Fluorophenyl)-N-[[3-[(1-methyl-4-piperidyl)methyl]phenyl]methyl]tetrahydropyran-4-amine dihydrochloride] | 6 | 3 | 95 |
| CN1CCC(Cc2cccc(CNC3(c4ccccc4F)CCCC3)c2)CC1 [Example 18, 1-(2-fluorophenyl)-N-[[3-[1-methyl-4-piperidyl)methyl]phenyl]methyl]cyclopentanamine dihydrochloride] | 8 | 2 | 95 |
| Oc1ccc(CNC2(c3ccccc3F)CCCC2)cc1CN1CCN(Cc2ccccc2)CC1 [Example 12, 2-[(4-Benzylpiperazin-1-yl)methyl]-4-[[[1-(2-fluorophenyl)cyclopentyl]amino]-methyl]phenol trihydrochloride] | 40 | 23 | 77 |
| Oc1ccc(CNC2(c3ccccc3F)CCCC2)cc1CN1CCCCC1 [Example 2, 4-[[[1-(2-Fluorophenyl)cyclopentyl]amino]methyl]-2-(1-piperidylmethyl)phenol dihydrochloride] | 45 | 30 | 55 |
| CN1CCN(Cc2cc(CNC3(c4ccccc4F)CCCCC3)ccc2O)CC1 [Example 3, 4-[[[1-(2-Fluorophenyl)cyclohexyl]amino]methyl]-2-[(4-methylpiperazin-1-yl)methyl]phenol trihydrochloride] | 20 | 14 | 95 |
| Fc1ccccc1C1(NCc2cccc(CN3CCCCC3)c2)CCCC1 [Example 21, 1-(2-Fluorophenyl)-N-[[3-(1-piperidylmethyl)phenyl]methyl]cyclopentanamine dihydrochloride] | 35 | 50 | 76 |
| Oc1ccc(CNC2(c3ccccc3F)CCCC2)cc1CN1CCNCC1 [Example 11, 4-[[[1-(2-Fluorophenyl)cyclopentyl]amino]methyl]-2-(piperazin-1-ylmethyl)-phenol] | 40 | 24 | 70 |
| CN1CCN(Cc2cc(CNC3(c4ccccc4F)CCC(F)(F)CC3)ccc2O)CC1 [Example 17, 4-[[[4,4-difluoro-1-(2-fluorophenyl)cyclohexyl]amino]methyl]-2-[(4-methyl-piperazin-1-yl)methyl]phenol trihydrochloride] | 21 | 18 | 90 |
| CN1CCC(Cc2cccc(CN(C)C3(c4ccccc4F)CCCC3)c2)CC1 [Example 19, 1-(2-fluorophenyl)-N-methyl-N-[[3-[(1-methyl-4-piperidyl)methyl]phenyl]methyl]cyclopentanamine dihydrochloride] | 11 | 5 | 90 |
| CN1CCN(Cc2cc(CNC3(c4ccccc4F)CCN(Cc4ccccc4)CC3)ccc2O)CC1 [Example 20, 4-[[[1-Benzyl-4-(2-fluorophenyl)-4-piperidyl]amino]methyl]-2-[(4-methylpiperazin-1-yl)methyl]phenol tetrahydrochloride] | 12 | 11 | 92 |

More lines, main results first:

| EC50 [1] [µM] | GI50 [2] [µM] | SMILES | Emax [2] [%] |
| --- | --- | --- | --- |
| 29 | 18 | CN1CCN(Cc2cc(CNC3(c4cccs4)CCCC3)ccc2O)CC1 [Example 25, 2-[(4-Methylpiperazin-1-yl)methyl]-4-[[[1-(2-thienyl)cyclopentyl]amino]methyl]phenol trihydrochloride] | 70 |
| 43 | 26 | COc1ccc(CNC2(c3ccccc3F)CCCC2)cc1CN1CCN(C)CC1 [Example 5, 1-(2-Fluorophenyl)-N-[[4-methoxy-3-[(4-methylpiperazin-1-yl)methyl]-phenyl]methyl]cyclopentanamine trihydrochloride] | 75 |
| 10 | 10 | CN1CCN(Cc2cc(CNC3(c4ccc(F)cc4)CCCC3)ccc2O)CC1 [Example 23, 4-[[[1-(4-Fluorophenyl)cyclopentyl]amino]methyl]-2-[(4-methylpiperazin-1-yl)methyl]phenol trihydrochloride] | 90 |
| 25 | 15 | CCN1CCN(Cc2cc(CNC3(c4ccccc4F)CCCC3)ccc2O)CC1 [Example 10, 2-[(4-Ethylpiperazin-1-yl)methyl]-4-[[[1-(2-fluorophenyl)cyclopentyl]amino]-methyl]phenol trihydrochloride] | 70 |
| 15 | 14 | CN1CCN(Cc2cc(CNC3(c4cccc(F)c4)CCCC3)ccc2O)CC1 [Example 22, 4-[[[1-(3-Fluorophenyl)cyclopentyl]amino]methyl]-2-[(4-methylpiperazin-1-yl)methyl]phenol trihydrochloride] | 80 |
| 16 | 12 | COc1cccc(C2(NCc3ccc(O)c(CN4CCN(C)CC4)c3)CCCC2)c1 [Example 27, 4-[[[1-(3-Methoxyphenyl)cyclopentyl]amino]methyl]-2-[(4-methylpiperazin-1-yl)methyl]phenol trihydrochloride] | 70 |
| 24 | 18 | CN1CCN(Cc2cc(CNC3(c4ccccc4)CCCC3)ccc2O)CC1 [Example 7, 2-[(4-Methylpiperazin-1-yl)methyl]-4-[[(1-phenylcyclopentyl)amino]methyl]-phenol trihydrochloride] | 70 |
| 23 | 19 | COc1ccccc1C1(NCc2ccc(O)c(CN3CCN(C)CC3)c2)CCCC1 [Example 14, 4-{[1-(2-Methoxy-phenyl)-cyclopentyl-amino]-methyl}-2-(4-methylpiperazin-1-ylmethyl)-phenol trihydrochloride] | 82 |
| 38 | 30 | CN1CCN(Cc2cc(CNC3(c4ccccc4F)CCC3)ccc2O)CC1 [Example 33, 4-[[[1-(2-Fluorophenyl)cyclobutyl]amino]methyl]-2-[(4-methylpiperazin-1-yl)methyl]phenol trihydrochloride] | 70 |
